Experimental data reported in PMC4585259 (Frontiers in Pharmacology, 2015).
Like-named read-outs stand apart in the source and are kept apart here.

Target: T1, rNav1.2 sodium channels (Rattus norvegicus, UniProt P04775)
T1 construct: host or cells: HEK-293
Test: QPatch automated patch clamp, inhibition of sodium currents evoked by 5 Hz trains at three extracellular pH values
Format: cell-based
Conditions: for class of pH-dependence pattern (cluster analysis): Ward's method on 18 variables of affinity, reversibility, onset; for τoffset / τonset: concentration (lidocaine 300 μM, memantine 30 μM)
Experimental: HEK-293 cells stably expressing rNav1.2 sodium channels were obtained from NeuroSearch (Ballerup, Denmark). The cells were grown in Dulbecco's modified Eagle medium supplemented with 10% FBS. Prior to use, the cells were trypsinized and subsequently kept in suspension in the QPatch cell storage facility in CHO-S- SFM-II medium.
Composition of the extracellular solution was: (in mM): 140 NaCl, 3 KCl, 1 CaCl2 1 MgCl2, 0.1 CdCl2, 20 TEA-Cl, 5 HEPES, adjusted to pH 7.3, Osmolality: 320 mOsm. […] Drugs were synthesized in Gedeon Richter Plc. […] The full list of drugs, with their three-letter codes, concentration, as well as their main therapeutic indication and main mechanism of action are shown in Table 1. […] The choice of concentrations used in this study may seem unusually high.
Data were sampled at a frequency of 25 kHz and filtered at 5 kHz. Junction potential was calculated to be −11 mV and was corrected for. […] Cells having membrane resistance < 500 MOhm, series resistance > 9 MOhm, or capacitance > 22 pF were excluded from analysis. The experimental protocol was also identical to the one used in our previous study: sodium channels were activated by 5 Hz trains of 5 depolarizations (−90 to −10 mV) repeated in every 20 s. In this study, however, the same control–drug-application–washout sequence was repeated four times: at neutral, acidic, alkalic, and again neutral pH. The peak amplitudes of sodium currents throughout the whole experiment are shown plotted against time in Figure 1 and Supplementary Figure 1.
Initial analysis, including subtraction of leak and capacitive artifacts, as well as peak detection were done in the QPatch software. […] All experiments were normalized to the amplitude of the current evoked by the first depolarization of the last train under control conditions. […] For all four drug applications in an experiment, apparent affinity, onset and offset time constants as well as reversibility values were calculated. […] (This method is equivalent to applying the Lineweaver-Burk plot method using a single concentration.) Reversibility values were calculated from control (c), inhibited (i), and wash-out (w) amplitudes as follows: Reversibility = (w-i)/(c-i). Reversibility values should not be regarded as experimental platform-independent properties of compounds. […] However, reversibility values are a valuable source of information regarding physicochemical differences between individual drugs, or between effects of the same drug under different extracellular pH conditions. Onset and offset time constants were determined by single exponential fitting to individual experiments. For neutral pH numerical data were given as the average of the data from the first and the last drug applications. Thin black lines on Figure 1 and Supplemental Figure 1 show the average of five fitted exponentials, (not the exponential fitted to the averaged normalized amplitudes). The numerical values of apparent affinity, onset and offset time constants and reversibility are shown in Table 2, and their relative position is illustrated in Figure 2. Affinity and time constant values were logarithmically transformed for statistics, therefore we show their geometric mean. For recovery data no transformation was done, and we show arithmetic mean values. Significance values were calculated using paired, two-tailed Student's t-test based on five pairs of apparent affinity (log transform), time constant (log transform), or reversibility values obtained from five individual experiments. Because of the large number of comparisons in this study, we accepted p < 0.01 as significant. Cluster analysis was done using Ward's minimum variance method, with Euclidean distance measure. Data were normalized by subtracting the mean (after logarithmic transformation in the case of apparent affinity and time constants), and dividing by the standard deviation.

[1] = pH 6.0, single concentration (lidocaine 300 μM, memantine 30 μM), geometric mean of 5, read-out: apparent affinity
[2] = pH 7.3, single concentration (lidocaine 300 μM, memantine 30 μM), geometric mean of 5, read-out: apparent affinity
[3] = pH 8.6, single concentration (lidocaine 300 μM, memantine 30 μM), geometric mean of 5, read-out: apparent affinity
[4] = pH=6.0, cc 100 mM, read-out: Apparent Affinity
[5] = pH=7.3, cc 100 mM, read-out: Apparent Affinity
[6] = pH=8.6, cc 100 mM, read-out: Apparent Affinity

T1 sequence (P04775 whole entry): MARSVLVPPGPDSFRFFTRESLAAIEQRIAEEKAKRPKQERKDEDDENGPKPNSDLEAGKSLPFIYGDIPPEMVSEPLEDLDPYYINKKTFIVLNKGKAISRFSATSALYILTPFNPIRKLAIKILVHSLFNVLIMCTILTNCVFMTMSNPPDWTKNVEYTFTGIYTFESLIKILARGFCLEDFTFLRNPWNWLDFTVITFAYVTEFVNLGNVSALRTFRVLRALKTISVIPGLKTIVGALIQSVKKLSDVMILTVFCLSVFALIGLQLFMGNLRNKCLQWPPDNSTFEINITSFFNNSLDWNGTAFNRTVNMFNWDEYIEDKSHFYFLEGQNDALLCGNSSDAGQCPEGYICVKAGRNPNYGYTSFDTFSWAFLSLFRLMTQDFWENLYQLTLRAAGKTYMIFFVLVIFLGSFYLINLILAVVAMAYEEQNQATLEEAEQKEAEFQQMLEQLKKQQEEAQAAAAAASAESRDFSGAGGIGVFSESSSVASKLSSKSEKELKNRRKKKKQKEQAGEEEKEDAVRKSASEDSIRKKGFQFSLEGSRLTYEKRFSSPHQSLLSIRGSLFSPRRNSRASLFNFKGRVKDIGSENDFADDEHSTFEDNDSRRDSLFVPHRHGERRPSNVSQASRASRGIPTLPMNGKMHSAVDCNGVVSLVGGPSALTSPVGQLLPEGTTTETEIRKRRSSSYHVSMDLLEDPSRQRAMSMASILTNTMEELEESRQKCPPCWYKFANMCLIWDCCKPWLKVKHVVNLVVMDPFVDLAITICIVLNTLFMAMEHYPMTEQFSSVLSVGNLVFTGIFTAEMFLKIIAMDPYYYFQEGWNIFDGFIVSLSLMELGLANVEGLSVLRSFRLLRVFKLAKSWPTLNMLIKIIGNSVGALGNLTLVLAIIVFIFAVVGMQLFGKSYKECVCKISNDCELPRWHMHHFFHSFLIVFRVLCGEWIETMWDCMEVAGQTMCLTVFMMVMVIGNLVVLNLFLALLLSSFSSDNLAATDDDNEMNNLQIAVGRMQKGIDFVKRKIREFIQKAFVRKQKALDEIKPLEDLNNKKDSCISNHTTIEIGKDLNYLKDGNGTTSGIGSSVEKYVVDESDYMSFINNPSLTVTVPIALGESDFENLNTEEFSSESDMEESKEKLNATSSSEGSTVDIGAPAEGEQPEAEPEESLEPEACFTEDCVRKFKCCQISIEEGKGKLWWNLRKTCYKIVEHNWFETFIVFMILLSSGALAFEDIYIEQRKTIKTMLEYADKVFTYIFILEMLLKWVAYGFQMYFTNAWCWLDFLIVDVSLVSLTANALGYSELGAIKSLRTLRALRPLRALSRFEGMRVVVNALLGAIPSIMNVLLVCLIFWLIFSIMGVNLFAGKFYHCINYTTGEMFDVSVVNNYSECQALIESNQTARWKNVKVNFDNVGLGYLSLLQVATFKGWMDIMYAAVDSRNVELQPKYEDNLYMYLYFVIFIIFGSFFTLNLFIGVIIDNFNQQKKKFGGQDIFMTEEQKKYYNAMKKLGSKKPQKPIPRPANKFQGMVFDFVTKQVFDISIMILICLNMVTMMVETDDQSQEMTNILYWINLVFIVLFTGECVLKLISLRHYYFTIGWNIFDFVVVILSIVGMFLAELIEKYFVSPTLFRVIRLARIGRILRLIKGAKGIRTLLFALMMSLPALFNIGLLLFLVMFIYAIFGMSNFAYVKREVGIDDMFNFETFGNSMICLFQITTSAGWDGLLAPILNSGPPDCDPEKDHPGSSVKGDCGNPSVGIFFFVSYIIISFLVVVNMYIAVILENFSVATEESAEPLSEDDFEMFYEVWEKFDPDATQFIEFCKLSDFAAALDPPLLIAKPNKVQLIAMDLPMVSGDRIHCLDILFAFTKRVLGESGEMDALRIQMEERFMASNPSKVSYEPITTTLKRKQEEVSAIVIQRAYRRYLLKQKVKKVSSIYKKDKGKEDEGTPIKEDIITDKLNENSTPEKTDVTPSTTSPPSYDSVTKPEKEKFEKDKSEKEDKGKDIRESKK

Structure (SMILES) | class of pH-dependence pattern (cluster analysis) | Ratio Reversibility (pH 6.0/7.3, cc 100 mM) | Ratio Tau Offset (pH 6.0/7.3, cc 100 mM) | Ratio Tau Onset (pH 6.0/7.3, cc 100 mM) | log Ratio App Aff (pH 6.0/7.3, cc 100 mM) | Ratio Reversibility (pH 6.0/8.6, cc 100 mM) | Ratio Tau Offset (pH 6.0/8.6, cc 100 mM) | Ratio Tau Onset (pH 6.0/8.6, cc 100 mM) | log Ratio App Aff (pH 6.0/8.6, cc 100 mM) | τoffset (pH 6.0) [s] | τonset (pH 6.0) [s] | Kd [1] [µM] | Ratio Reversibility (pH 7.3/8.6, cc 100 mM) | Ratio Tau Offset (pH 7.3/8.6, cc 100 mM) | τoffset (pH 7.3) [s] | τonset (pH 7.3) [s] | Kd [2] [µM] | τoffset (pH 8.6) [s] | τonset (pH 8.6) [s] | Kd [3] [µM] | other results
Nc1c(Br)cc(Br)cc1CN[C@H]1CC[C@H](O)CC1 [ambroxol] | Class G | 0.839 | 0.759 | 0.884 | 0.190 | 1.137 | 0.708 | 0.667 | 0.494 | 8.50 | 7.60 | 138 | 1.355 | 0.933 | 11.20 | 8.60 | 88.7 | 12.00 | 11.40 | 44.2 | Ratio Tau Onset (pH 7.3/8.6, cc 100 mM): 0.754; log Ratio App Aff (pH 7.3/8.6, cc 100 mM): 0.303; Reversibility (pH=6.0, cc 100 mM): 0.65; Kd [4]: 138 µM; Reversibility (pH=7.3, cc 100 mM): 0.78; Kd [5]: 88.7 µM; Reversibility (pH=8.6, cc 100 mM): 0.58; Kd [6]: 44.2 µM
CN(C)CCC=C1c2ccccc2CCc2ccccc21 [amitriptyline] | Class C |  |  |  |  |  |  |  |  | 23.45 | 16.40 | 40.7 |  |  | 19.66 | 15.10 | 25.6 | 28.00 | 14.70 | 13.8 | Ratio Reversibility (pH 6.0/7.3, cc 30 mM): 1.364; Ratio Tau Offset (pH 6.0/7.3, cc 30 mM): 1.193; Ratio Tau Onset (pH 6.0/7.3, cc 30 mM): 1.086; log Ratio App Aff (pH 6.0/7.3, cc 30 mM): 0.202; Ratio Reversibility (pH 6.0/8.6, cc 30 mM): 5.190; Ratio Tau Offset (pH 6.0/8.6, cc 30 mM): 0.838; Ratio Tau Onset (pH 6.0/8.6, cc 30 mM): 1.116; log Ratio App Aff (pH 6.0/8.6, cc 30 mM): 0.469; Ratio Reversibility (pH 7.3/8.6, cc 30 mM): 3.806; Ratio Tau Offset (pH 7.3/8.6, cc 30 mM): 0.702; Ratio Tau Onset (pH 7.3/8.6, cc 30 mM): 1.027; log Ratio App Aff (pH 7.3/8.6, cc 30 mM): 0.267; Reversibility (pH=6.0, cc 30 mM): 0.74; Kd (pH=6.0, cc 30 mM, read-out: Apparent Affinity): 40.7 µM; Reversibility (pH=7.3, cc 30 mM): 0.55; Kd (pH=7.3, cc 30 mM, read-out: Apparent Affinity): 25.6 µM; Reversibility (pH=8.6, cc 30 mM): 0.14; Kd (pH=8.6, cc 30 mM, read-out: Apparent Affinity): 13.8 µM
CCCCN1CCCCC1C(=O)Nc1c(C)cccc1C (stereo not shown) [bupivacaine] | Class B | 0.906 | 2.692 | 4.180 | 0.218 | 1.346 | 4.516 | 4.322 | 0.412 | 56.00 | 51.00 | 106 | 1.485 | 1.677 | 20.80 | 12.20 | 64.2 | 12.40 | 11.80 | 41 | effect of alkalic pH on onset/offset kinetics (in words): significant acceleration of both onset and offset; Ratio Tau Onset (pH 7.3/8.6, cc 100 mM): 1.034; log Ratio App Aff (pH 7.3/8.6, cc 100 mM): 0.194; Reversibility (pH=6.0, cc 100 mM): 0.64; Kd [4]: 106 µM; Reversibility (pH=7.3, cc 100 mM): 0.71; Kd [5]: 64.2 µM; Reversibility (pH=8.6, cc 100 mM): 0.48; Kd [6]: 41 µM
